Reference: paper PMC8231969, “Characterization of Two NMN Deamidase Mutants as Possible Probes for an NMN Biosensor” (International Journal of Molecular Sciences, 2021)
Read-outs that look alike come from different tables or passages of the source.

Key:
[1] = biological target: T1, K61Q PncC (Escherichia coli, UniProt P0A6G3, K61Q); assay type: binding, E. coli
T1 construct: made in house; host or cells: E. coli BL21(DE3)
Method: (§1) Experimental data were processed using the OriginPro 8.0 (OriginLab Corporation, Northampton, MA, USA). A non-linear curve analysis (Hill1 plot) was used for plotting the F0/F values in function of the metabolite concentration, to obtain the Kd value.
Percentage of the K61Q protein that would exist in complex with NMN in a cellular setting was calculated based on the Kd value, by using the equation: %=100/1+Kd/[NMN]

[2] = test system: glutamine binding protein (GlnBP); conditions: GlnBP, high concentration of nucleotide
Method: Steady-state measurements were performed using an ISS_K2 fluorometer (ISS, Urbana-Champaign, IL, USA), equipped with a one-cell temperature-controlled sample holder. […] Excitation and emission slit widths were fixed at 0.5 and 1.0 nm, respectively. […] The nucleotides were added to reach the indicated final concentration (from 0.18 to 96 µM) with an incubation interval of 10 min. Triplicate readings were done for each experimental point. Experiments were repeated three times (for NMN and NaMN) or twice (for all the other metabolites). Controls experiments were performed using the E. coli Glutamine Binding Protein (GlnBP, 3µM), with increasing concentration of NMN or NaMN, at the same conditions.
Percentages of reduction of fluorescence intensities compared to buffer, were calculated as follow: (normalized fluorescence in presence of analyte at a given [µM]/normalized fluorescence in presence of corresponding volume of buffer) × 100.

[3] = biological target: T2, S29A PncC (Escherichia coli, UniProt P0A6G3, S29A); assay type: binding, E. coli
T2 construct: made in house; host or cells: E. coli BL21(DE3)
From the text: as §1

[4] = biological target: the molecule itself; assay: SEC; gel filtration on Superose 12 HR 10/30, 50 mM HEPES pH 7.5, 0.3 M NaCl, 1 mM TCEP; 45 ug wild type, 30 ug mutants; calibrated with protein standards; self-association (dimer)
[5] = Thermal stability (melting temperature) of PncC proteins without ligand; assay type: physicochemical; conditions: absence of NMN
Method: Protein melting temperature (Tm) was determined by fluorescence-based thermal shift assay using fluoroprobe SYPRO Orange dye (Invitrogen, Waltham, MA, USA). The assay was performed in a RotorGene 3000 real-time PCR (Corbett, Biocompare, San Francisco, CA, USA). The assay mixture contained 50 mM Hepes/NaOH, pH 7.5, 300 mM NaCl, 1 mM TCEP, 1 μM protein, Sypro orange at 10-fold dilution from a 5000-fold stock, and the various ligands at the tested concentrations, in a final volume of 25 μL. The mixtures were pre-heated at 40 °C for 5 s, then heated to 50 °C in 1 s, and finally heated from 50 to 99 °C with a heating-up rate of 0.5 °C every 5 s. The fluorescence intensity was measured with Ex/Em: 470/585 nm. The melting temperature was determined by taking the maximum point of the slope-derivative peak. Kd values were determined by plotting the percentage of unfolded proteins as a function of nucleotide concentration at a fixed temperature, after normalization of the unfolding curves. Fitting of the data was performed using the equations reported in [34]. Three independent experiments were carried out and values were reported as the means ± standard deviation.

[6] = nucleotide 96 µM (maximum quenching)

| Molecule | K61Q PncC fluorescence quenching (%) vs buffer ([1]; nucleotide 0.185 µM) | K61Q PncC fluorescence quenching (%) vs buffer ([1]; nucleotide 0.375 µM) | K61Q PncC fluorescence quenching (%) vs buffer ([1]; nucleotide 0.75 µM) | K61Q PncC fluorescence quenching (%) vs buffer ([1]; nucleotide 1.5 µM) | K61Q PncC fluorescence quenching (%) vs buffer ([1]; nucleotide 3 µM) | K61Q PncC fluorescence quenching (%) vs buffer ([1]; nucleotide 6 µM) | K61Q PncC fluorescence quenching (%) vs buffer ([1]; nucleotide 12 µM) | K61Q PncC fluorescence quenching (%) vs buffer ([1]; nucleotide 24 µM) | K61Q PncC fluorescence quenching (%) vs buffer ([1]; nucleotide 48 µM) | reduction of fluorescence of GlnBP [2] | S29A PncC fluorescence quenching (%) vs buffer ([3]; nucleotide 0.185 µM) | S29A PncC fluorescence quenching (%) vs buffer ([3]; nucleotide 0.375 µM) | S29A PncC fluorescence quenching (%) vs buffer ([3]; nucleotide 0.75 µM) | S29A PncC fluorescence quenching (%) vs buffer ([3]; nucleotide 1.5 µM) | S29A PncC fluorescence quenching (%) vs buffer ([3]; nucleotide 3 µM) | S29A PncC fluorescence quenching (%) vs buffer ([3]; nucleotide 6 µM) | S29A PncC fluorescence quenching (%) vs buffer ([3]; nucleotide 12 µM) | S29A PncC fluorescence quenching (%) vs buffer ([3]; nucleotide 24 µM) | S29A PncC fluorescence quenching (%) vs buffer ([3]; nucleotide 48 µM) | stoichiometry N [4] | other results |
| --- | --- | --- | --- | --- | --- | --- | --- | --- | --- | --- | --- | --- | --- | --- | --- | --- | --- | --- | --- | --- | --- |
| Nc1ncnc2c1ncn2[C@@H]1O[C@H](COP(=O)(O)OP(=O)([O-])OC[C@H]2O[C@@H]([n+]3cccc(C(=O)O)c3)[C@H](O)[C@@H]2O)[C@@H](O)[C@H]1O [NaAD, nicotinic acid adenine dinucleotide] | 0.65% | 1.02% | 1.68% | 2.19% | 2.25% | 2.39% | 3.72% | 4.13% | 5.77% | 6.3% | 0% | 0% | 0% | 0% | 0% | 0% | 0% | 0% | 1.97% | – | – |
| NC(=O)c1ccc[n+]([C@@H]2O[C@H](COP(=O)(O)OP(=O)([O-])OC[C@H]3O[C@@H](n4cnc5c(N)ncnc54)[C@H](OP(=O)(O)O)[C@@H]3O)[C@@H](O)[C@H]2O)c1 [NADP] | 0% | 0.06% | 0.29% | 0.55% | 0.42% | 0% | 1.20% | 1.59% | 2.90% | 4.8% | 0% | 0% | 0.67% | 1.60% | 2.74% | 2.87% | 3.89% | 4.31% | 6.36% | – | K61Q PncC fluorescence quenching (%) vs buffer ([1]; nucleotide 96 µM): 5.1% |
| NC(=O)c1ccc[n+]([C@@H]2O[C@H](CO)[C@@H](O)[C@H]2O)c1 [NR, nicotinamide riboside] | 2.13% | 2.97% | 3.37% | 3.71% | 3.13% | 2.36% | 2.7% | 2.1% | 1.79% | do not affect | 0% | 0.12% | 0.80% | 0.96% | 1.84% | 1.98% | 2.29% | 3.13% | 3.51% | – | S29A PncC fluorescence quenching (%) vs buffer [3, 6]: 4.48% |
| O=C(O)c1cccnc1 [Na, nicotinic acid] | 0.49% | 1.2% | 2.11% | 2.66% | 2.89% | 2.81% | 3.26% | 2.74% | 3.69% | do not affect | 0% | 0% | 0% | 0% | 0% | 0% | 0% | 0.16% | 0.62% | – | – |
| NC(=O)c1cccnc1 [Nam, nicotinamide] | 0% | 0.34% | 0.87% | 0.68% | 0.91% | 0.26% | 1.15% | 1.04% | 1.14% | do not affect | 0.08% | 0.18% | 0.48% | 1.49% | 2.51% | 2.65% | 3.29% | 3.29% | 3.71% | – | S29A PncC fluorescence quenching (%) vs buffer [3, 6]: 5.01% |
| NC(=O)c1ccc[n+]([C@@H]2O[C@H](COP(=O)([O-])OP(=O)(O)OC[C@H]3O[C@@H](n4cnc5c(N)ncnc54)[C@H](O)[C@@H]3O)[C@@H](O)[C@H]2O)c1 [NAD, nicotinamide adenine dinucleotide] | 0.63% | 1.39% | 1.57% | 0.80% | 0.85% | 0% | 0.65% | 0.36% | 0.72% | 6.6% | 0.52% | 0.32% | 0.80% | 0% | 0.19% | 0.32% | 1.35% | 2.54% | 4.58% | – | – |
| NMN deamidase (PncC) from E. coli, wild type (enzyme, UniProt P0A6G3 1-165, looked up, NMN deamidase PncC (EC 3.5.1.42), E. coli; the enzyme consists of 165 residues, 17.6 kDa; expressed from pCA24N-pncC; also called WT PncC; wild-type PncC; source: E. coli BL21(DE3), purified (HisTrap HP column, dialysis); not shown: His tag (from the HisTrap HP purification)) MTDSELMQLSEQVGQALKARGATVTTAESCTGGWVAKVITDIAGSSAWFERGFVTYSNEAKAQMIGVREETLAQHGAVSEPVVVEMAIGALKAARADYAVSISGIAGPDGGSEEKPVGTVWFAFATARGEGITRRECFSGDRDAVRRQATAYALQTLWQQFLQNT | – | – | – | – | – | – | – | – | – | – | – | – | – | – | – | – | – | – | – | 2 | – |
| S29A PncC: catalytically inactive S29A mutant of E. coli NMN deamidase PncC (protein, left off: His tag (from the HisTrap HP purification; vector pCA24N), end not stated, state not stated) MTDSELMQLSEQVGQALKARGATVTTAEACTGGWVAKVITDIAGSSAWFERGFVTYSNEAKAQMIGVREETLAQHGAVSEPVVVEMAIGALKAARADYAVSISGIAGPDGGSEEKPVGTVWFAFATARGEGITRRECFSGDRDAVRRQATAYALQTLWQQFLQNT | – | – | – | – | – | – | – | – | – | – | – | – | – | – | – | – | – | – | – | – | Tm (melting temperature of the protein) [5]: 85.5 °C |
| S29A PncC (enzyme, E. coli, UniProt P0A6G3 1-165, looked up, NMN deamidase PncC (EC 3.5.1.42), E. coli; 165 residues; mutagenized pCA24N-pncC plasmid; also called PncC S29A mutant; source: E. coli BL21(DE3), purified (HisTrap HP column, dialysis); not shown: His tag (from the HisTrap HP purification)) MTDSELMQLSEQVGQALKARGATVTTAEACTGGWVAKVITDIAGSSAWFERGFVTYSNEAKAQMIGVREETLAQHGAVSEPVVVEMAIGALKAARADYAVSISGIAGPDGGSEEKPVGTVWFAFATARGEGITRRECFSGDRDAVRRQATAYALQTLWQQFLQNT | – | – | – | – | – | – | – | – | – | – | – | – | – | – | – | – | – | – | – | 2 | – |
| K61Q PncC (enzyme, E. coli, UniProt P0A6G3 1-165, looked up, NMN deamidase PncC (EC 3.5.1.42), E. coli; 165 residues; mutagenized pCA24N-pncC plasmid; also called PncC K61Q mutant; source: E. coli BL21(DE3), purified (HisTrap HP column, dialysis); not shown: His tag (from the HisTrap HP purification)) MTDSELMQLSEQVGQALKARGATVTTAESCTGGWVAKVITDIAGSSAWFERGFVTYSNEAQAQMIGVREETLAQHGAVSEPVVVEMAIGALKAARADYAVSISGIAGPDGGSEEKPVGTVWFAFATARGEGITRRECFSGDRDAVRRQATAYALQTLWQQFLQNT | – | – | – | – | – | – | – | – | – | – | – | – | – | – | – | – | – | – | – | 2 | – |
